From patent publication US20250382344A1, “Soluble GLP1/GIP/NPY2 Receptor Triple Agonists” (Boehringer Ingelheim International GmH, priority 2024, published 2025)
Read-outs that look alike come from different tables or passages of the source.

Tests used:
[1] = molecular target: T1, hGIPR (Homo sapiens, UniProt P48546); assay: hGIPR CreLuc assay in 0.5% and 100% plasma (CHO CRE-luciferase reporter cells); assay type: cell-based; conditions: 0.5% human plasma, read-out: hGIPR 0.5% hP
T1 construct: expressed in transfected cells; host or cells: CHO CRE-luciferase reporter cells
T1 sequence (P48546 22-466): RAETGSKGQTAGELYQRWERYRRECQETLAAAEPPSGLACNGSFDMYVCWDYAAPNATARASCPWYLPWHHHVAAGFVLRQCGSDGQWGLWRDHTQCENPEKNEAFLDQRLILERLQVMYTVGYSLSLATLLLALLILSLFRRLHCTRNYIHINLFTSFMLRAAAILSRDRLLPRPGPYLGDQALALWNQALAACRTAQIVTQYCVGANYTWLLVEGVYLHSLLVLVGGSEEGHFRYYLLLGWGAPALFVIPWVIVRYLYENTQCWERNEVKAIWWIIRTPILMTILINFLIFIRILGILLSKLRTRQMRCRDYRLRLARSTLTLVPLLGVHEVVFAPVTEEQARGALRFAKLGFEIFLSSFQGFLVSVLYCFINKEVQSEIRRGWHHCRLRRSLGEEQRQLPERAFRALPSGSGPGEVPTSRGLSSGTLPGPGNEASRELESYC

[2] = molecular target: T2, hGLP1R (Homo sapiens, UniProt P43220); assay: hGLP1R CreLuc assay in 0.5% and 100% plasma (HEK-293 CRE-luciferase reporter cells); assay type: cell-based; conditions: HEK-293 reporter cells
T2 construct: expressed in transfected cells; host or cells: HEK-293 CRE-luciferase reporter cells
From the text: CHO and HEK-293 recombinant cell lines express a luciferase reporter gene under control of the CAMP responsive element (CRE). As a second recombinant protein the GLP-1 and NPY2 receptors were expressed in the reporter gene HEK cells, and the GIP receptor was expressed in the reporter gene CHO cells, respectively. Stimulation of these recombinant cells with an agonist leads to an increase of intracellular CAMP levels. In the presence of CAMP, the transcription factor CRE binding protein (CREB) binds to the CRE and to the CREB binding protein (CBP), which leads to transcription of the luciferase reporter gene. Peptides upon serial-dilution in 100% DMSO were transferred into 384-well assay plates with 5 μl pre-dispensed assay buffer (1×HBSS, 20 mM HEPES, pH7.4 supplemented with 0.5% human plasma) using acoustic dispensing on a Labcyte ECHO. Cryo-preserved transgenic reporter gene cells were thawed in assay buffer. 20 μl (10.000 cells/well) were added to the plate with the peptides and incubated for 4 hours at 37° C. in a humidified incubator. Following incubation, assay plates are equilibrated to room temperature, followed by addition of 25 μl of Bright-Glo™ Luciferase reagent, incubation at room temperature for 10 minutes and analysis of luminescence (Envision Reader). […] EC50 values were calculated by non-linear regression using sigmoid concentration-response with variable slope.
The same assays were run in the presence of 100% plasma with no additional buffer constituents.

[3] = Solubility in 0.1 M phosphate buffer at pH 7; assay type: physicochemical; conditions: 0.1 M phosphate buffer at pH 7, 10 mg/mL final peptide concentration, shaking 2 hours at room temperature, peptides as TFA-salts; measured sample pH 6.5-7.0
[4] = 0.5% human plasma, read-out: hGLP1R 0.5% hP

T2 sequence (P43220 24-463): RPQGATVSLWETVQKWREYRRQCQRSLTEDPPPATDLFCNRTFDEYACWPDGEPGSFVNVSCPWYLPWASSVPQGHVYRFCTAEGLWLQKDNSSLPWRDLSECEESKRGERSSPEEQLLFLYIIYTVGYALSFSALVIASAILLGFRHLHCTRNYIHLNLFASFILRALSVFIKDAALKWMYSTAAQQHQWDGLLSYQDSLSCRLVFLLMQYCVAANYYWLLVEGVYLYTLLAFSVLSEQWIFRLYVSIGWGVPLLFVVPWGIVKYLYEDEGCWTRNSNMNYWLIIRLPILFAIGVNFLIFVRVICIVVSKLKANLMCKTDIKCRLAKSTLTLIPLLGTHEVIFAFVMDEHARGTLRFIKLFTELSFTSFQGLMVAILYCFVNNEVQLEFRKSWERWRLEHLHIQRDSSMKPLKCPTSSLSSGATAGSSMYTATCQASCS

EC50 [1] [nM]	EC50 [2, 4] [nM]	EC50 ([2]; 100% human plasma, read-out: hGLP1R 100% hP) [nM]	solubility at 2 h [3] [µg/mL]	Structure (SMILES)
0.4	0.7	2	4800	CC[C@H](C)[C@H](NC(=O)[C@H](CC(C)C)NC(=O)[C@H](Cc1c[nH]cn1)NC(=O)[C@H](CCCNC(=N)N)NC(=O)[C@@H](NC(=O)[C@H](Cc1ccccc1)NC(=O)[C@H](C)NC(=O)C(C)(C)NC(=O)[C@H](CCC(N)=O)NC(=O)[C@H](C)NC(=O)[C@H](CCC(=O)O)NC(=O)[C@H](CCC(=O)O)NC(=O)[C@H](CCC(=O)O)NC(=O)[C@H](CC(C)C)NC(=O)C(C)(C)NC(=O)[C@@H](NC(=O)[C@H](CO)NC(=O)[C@H](Cc1ccc(O)cc1)NC(=O)[C@H](CC(=O)O)NC(=O)[C@H](CO)NC(=O)[C@@H](NC(=O)[C@H](Cc1ccccc1)NC(=O)[C@@H](NC(=O)CNC(=O)[C@H](CCC(=O)O)NC(=O)C(C)(C)NC(=O)[C@@H](N)Cc1ccc(O)cc1)[C@@H](C)O)[C@@H](C)O)[C@@H](C)CC)C(C)C)C(=O)N[C@@H](CC(N)=O)C(=O)N[C@@H](CCCCNC(=O)CC[C@H](NC(=O)CC[C@H](NC(=O)CC[C@H](NC(=O)CC[C@H](NC(=O)CCCCCCCCCCCCCCCCC(=O)O)C(=O)O)C(=O)O)C(=O)O)C(=O)O)C(=O)NC(C)(C)C(=O)N[C@H](C(=O)N[C@@H](CCCNC(=N)N)C(=O)N[C@@H](CCC(N)=O)C(=O)N[C@@H](CCCNC(=N)N)C(=O)N[C@@H](Cc1ccc(O)cc1)C(N)=O)[C@@H](C)O [Compound 25, Y-Aib-E-G-T-F-T-S-D-Y-S-I-Aib-L-E-E-E-A-Q-Aib-A-F-V-R-H-L-I-N-K(1,3)-Aib-T-R-Q-R-Y-NH2.C18DA-gGlu-gGlu-gGlu-gGlu(1,2)]
0.1	0.2		9800	CC[C@H](C)[C@H](NC(=O)[C@H](CC(C)C)NC(=O)[C@H](Cc1c[nH]cn1)NC(=O)[C@H](CCCNC(=N)N)NC(=O)[C@@H](NC(=O)[C@H](Cc1ccccc1)NC(=O)[C@H](C)NC(=O)C(C)(C)NC(=O)[C@H](CCC(N)=O)NC(=O)[C@H](C)NC(=O)[C@H](CCC(N)=O)NC(=O)[C@H](CCCCN)NC(=O)[C@H](CCC(=O)O)NC(=O)[C@H](CC(C)C)NC(=O)C(C)(C)NC(=O)[C@@H](NC(=O)[C@H](CO)NC(=O)[C@H](Cc1ccc(O)cc1)NC(=O)[C@H](CC(=O)O)NC(=O)[C@H](CO)NC(=O)[C@@H](NC(=O)[C@H](Cc1ccccc1)NC(=O)[C@@H](NC(=O)CNC(=O)[C@H](CCC(=O)O)NC(=O)C(C)(C)NC(=O)[C@@H](N)Cc1ccc(O)cc1)[C@@H](C)O)[C@@H](C)O)[C@@H](C)CC)C(C)C)C(=O)N[C@@H](CC(N)=O)C(=O)N[C@@H](CCCCNC(=O)CCCCCNC(=O)CCCCCNC(=O)CC[C@H](NC(=O)CC[C@H](NC(=O)CC[C@H](NC(=O)CC[C@H](NC(=O)CC[C@H](NC(=O)CCCCCCCCCCCCCCCCC(=O)O)C(=O)O)C(=O)O)C(=O)O)C(=O)O)C(=O)O)C(=O)NC(C)(C)C(=O)N[C@H](C(=O)N[C@@H](CCCNC(=N)N)C(=O)N[C@@H](CCC(N)=O)C(=O)N[C@@H](CCCNC(=N)N)C(=O)N[C@@H](Cc1ccc(O)cc1)C(N)=O)[C@@H](C)O [Compound 44, Y-Aib-E-G-T-F-T-S-D-Y-S-I-Aib-L-E-K-Q-A-Q-Aib-A-F-V-R-H-L-I-N-K(1,3)-Aib-T-R-Q-R-Y-NH2.C18DA-gGlu-gGlu-gGlu-gGlu-gGlu-AHX-AHX(1,2)]
